Measurements taken from patent publication US20110269699A1, “CANCER THERAPY” (priority 2008, published 2011).

How the values were obtained:
[1] = tested on: 102Eμ-myc/Bcl-2 lymphomas; experiment: In vivo therapy assay (Kaplan-Meier survival); parameters: species or system C57BL/6 mice; settings: 5.6 mg/kg i.v. every 4 d, four doses
Method: (§1) FIG. 4. […] C57BL/6 mice (10 mice per group) bearing (FIG. 4A) 4242Eμ-myc, (FIG. 4B) 229Eμ-myc, (FIG. 4C) 226Eμ-myc, (FIG. 4D) 102Eμ-myc, (FIG. 4E) 4242Eμ-myc/Bcl-2, (FIG. 4F) 229Eμmyc/Bcl-2, (FIG. 4G) 226Eμ-myc/Bcl-2, and (FIG. 4H) 102Eμ-myc/Bcl-2, lymphomas were treated with romidepsin or vehicle. Therapy commenced after WBC counts reached ≧13×10^3/μL. Therapy consisted of either 5.6 mg/kg romidepsin (injected i.v. every 4 d for a total of four doses) or vehicle.
(§2) For therapy experiments, Eμ-myc lymphomas were transplanted into C57BL/6 mice and treatment with romidepsin or vehicle commenced when WBC counts in the peripheral blood reached a pathologic threshold (>13×10^3/μL).
(§3) For in vivo apoptosis assays, C57BL/6 mice were injected with Eμ-myc lymphomas (5×10^5 cells per animal) and after 10 to 15 days on which lymph nodes became well-palpable romidepsin (5.6 mg/kg) was administered i.v. After the indicated time points, mice were sacrificed and cells were harvested from brachial lymph nodes for fluorescence-activated cell sorting-based assays to measure apoptotic signaling (Lindemann et al., Proc. Nat. Acad. Sci. USA 104:8071-8078, 2007). To assess therapeutic efficacy of romidepsin, C57BL/6 mice were injected with Eμ-myc lymphomas of the indicated genotypes i.v. (5×10^5 cells per animal). Peripheral WBC counts were then monitored until they exceeded 13×10^3/μL (Sysmex Hematology Analyzer K-1000) and romidepsin was administered at 5.6 mg/kg i.v. once every 4 days for a total of four injections. […] Mice in the control cohort received the corresponding amount of vehicle. Cohorts consisted of 8 to 11 mice each, 2 to 3 independently derived lymphomas per genotype. Peripheral WBC counts and body weights were recorded weekly. On signs of major distress or when lymphomas were relapsing as indicated by enlarged brachioaxial lymph nodes, mice were euthanized and a necropsy was done. For analysis of therapeutic efficacy, tumor-induced mortality “events” were recorded. Kaplan-Meier analysis was done and comparisons made using the log-rank (Mantel-Cox) test (MedCalc software version 8.0.2.0).

[2] = tested on: 229Eμ-myc/Bcl-2 lymphomas; experiment: In vivo therapy assay (Kaplan-Meier survival); parameters: species or system C57BL/6 mice; settings: 5.6 mg/kg i.v. every 4 d, four doses
Method: as §1, §2, §3

With “(1S,4S,10S,16E,21R)-7-[(2Z)-ethylidene]-4,21-diisopropyl-2-oxa-12,13-dithia-5,8,20,23-tetraazabicyclo[8.7.6]tricos-16-ene-3,6,9,19,22-pentanone [Romidepsin]” the “therapeutic benefit (survival)” value [1] was “little or no therapeutic benefit”, the median survival ([1]; vehicle 11 d, P<0.07) was 14.5 days and the “survival of mice compared with vehicle-treated mice” value [2] was “significantly extended the survival”. It also gave a median survival ([2]; vehicle 18 d, P<0.0001) of 30 days.
